Data reported in US10640457B2, “Histone acetyltransferase activators and uses thereof” (The Trustees of Columbia University in the City of New York, priority 2009, dated 2020).
Where “and” joins values, the source holds several entries; their conditions need not be identical. Equal entries are not always repeated. Entries after “also recorded” stand apart in the source; their conditions may differ.

Legend:
Aβ42-treated slices = assay: LTP in Aβ42-treated hippocampal slices (YF2); settings: 200 nM Aβ42-treated slices; YF2 1 μM for 30 min prior to the θ-burst
Description: Next, we checked if YF2 could attenuate synaptic and cognitive dysfunction after Aβ elevation. […] Next, we induced LTP or contextual fear memory as well as reference memory in the presence of oligomeric Aβ42, or vehicle. In the LTP experiments 200 nM Aβ42 or vehicle were perfused through the bath solution for 20 min prior to the application of the θ-burst. In the behavioral experiments 200 nM Aβ42 (in a final volume of 1 μl over 1 min) or vehicle were bilaterally infused 15 min prior to the foot shock or 15 min prior to the 1st trial (for the 1st group of tests in a 2-day radial arm water maze (RAWM) test assessing reference memory^[P34] (herein incorporated by reference in its entirety)) and 15 min prior to the 7th trial (for the 2nd group of tests of the RAWM) into dorsal hippocampus of the animal that had been pre-implanted with a cannula the week before. Aβ reduced LTP and both reference and contextual fear memory (FIG. 66).

HDAC11 = molecular target: T1, HDAC11 (Homo sapiens, UniProt Q96DB2); assay: HDAC11 fluorogenic activity assay; settings: for % Activity: Repeat1/Repeat2, listed as OA2
T1 sequence (Q96DB2 1-347): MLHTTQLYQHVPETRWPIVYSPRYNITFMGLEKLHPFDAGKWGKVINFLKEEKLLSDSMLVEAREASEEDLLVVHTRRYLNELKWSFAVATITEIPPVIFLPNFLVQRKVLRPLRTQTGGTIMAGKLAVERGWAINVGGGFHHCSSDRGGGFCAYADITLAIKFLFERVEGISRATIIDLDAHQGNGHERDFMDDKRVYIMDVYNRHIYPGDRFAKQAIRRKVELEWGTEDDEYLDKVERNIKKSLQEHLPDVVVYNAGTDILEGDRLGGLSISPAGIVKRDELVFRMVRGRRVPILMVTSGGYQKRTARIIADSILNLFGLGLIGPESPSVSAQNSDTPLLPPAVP

[1] = in vivo, ip
Aβ42-infused mice = assay: Two day radial arm water maze in Aβ-infused mice (YF2); assay type: in vivo
Description: The task is a hybrid of the Morris Water Maze (MWM) and the radial arm land maze. This task is altered in Aβ-infused mice. The motivation for the animals is the immersion in water. The mouse needed to swim in 6 alleys (arms) radiating from a central area until it found a hidden (submerged) platform at the end of one of the arms, based on visual cues placed in the room. […] The first day of the protocol was a training day. Mice were trained to identify the platform location by alternating between a visible and a hidden platform in a goal arm. The final 3 trials on day 1 and all 15 trials on day 2 used a hidden escape platform to force mice to use spatial cues to identify the location of the goal arm.
To avoid learning limitations imposed by exhausting practice and to avoid fatigue that may result from consecutive trials, spaced practice training were established by running the mice in cohorts of 4 and alternating different cohorts through the 15 training trials over 3 hours testing periods each day. […] The number of incorrect arm entries (entries in arms with no platform) was counted. […] Failure to select an arm after 15 sec were counted as an error and the mouse was returned to the start arm. […]
Next, mice from the first cohort completed trials 7-12 again using the alternating visible-hidden platform location. […] For data analysis, averages for each mouse were calculated using blocks of 3 trials. […]

p300 = molecular target: T2, p300 (Homo sapiens, UniProt Q09472); assay: In vitro HAT activation assay, p300; assay type: biochemical; settings: in vitro assays; FIG. 72
T2 construct: we will use the catalytic domain of human CBP, PCAF, p300 and GCNS (Enzo Life Sci., USA); purchased Enzo Life Sci
T2 sequence (Q09472 1287-1663 limits assumed): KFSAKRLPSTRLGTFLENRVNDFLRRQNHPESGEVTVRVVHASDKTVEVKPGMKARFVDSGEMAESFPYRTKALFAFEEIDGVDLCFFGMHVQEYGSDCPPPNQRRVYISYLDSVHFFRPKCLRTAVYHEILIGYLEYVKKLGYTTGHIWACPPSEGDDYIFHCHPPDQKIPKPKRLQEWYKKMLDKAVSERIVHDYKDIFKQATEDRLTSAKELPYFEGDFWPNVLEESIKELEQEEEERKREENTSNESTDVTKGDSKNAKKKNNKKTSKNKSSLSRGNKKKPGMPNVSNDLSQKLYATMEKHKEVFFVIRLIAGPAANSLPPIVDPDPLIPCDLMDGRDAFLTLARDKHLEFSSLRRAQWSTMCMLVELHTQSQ
Description: Compounds will be tested for HAT activator activity first, using the HAT Assay kit from Active Motif (USA, CA). For this assay, we will use the catalytic domain of human CBP, PCAF, p300 and GCNS (Enzo Life Sci., USA). The catalytic domains for the remaining HATs will be produced using New England Biolabs K. lactis Protein Expression Kit. […] When assayed against all other HATs, they must show at least a 50 fold greater potency towards CBP and/or PCAF.

Aβ-infused mice = assay: Contextual and cued fear conditioning in Aβ42-infused mice (TSA); assay type: in vivo
Description: HDAC inhibition rescues the defect in associative memory by Aβ elevation. The APP and PS1 transgenes could affect neuronal function through different mechanisms [B23, B24] (each herein incorporated by reference in its entirety), including direct effects by Aβ. Full-length APP and its cleavage products could differently impact H4 acetylation. To separate Aβ effects from other effects of APP and PS1 overexpression, we next determined whether Aβ per se is responsible for the deficit in H4 acetylation observed in our studies on transgenic mice. […] (each herein incorporated by reference in its entirety), we applied a preparation containing oligomeric Aβ42 (200 nM in a volume of […], slowly over 1 min) into dorsal hippocampi (FIG. 24A-B), 15 min prior to training for fear conditioning, with injection of TSA or vehicle (2 mg/kg body weight, 2 hrs prior to training, i.p.). Infusion occurred 5-7 days after implanting cannulas onto dorsal hippocampi. We found no difference in the freezing behavior among the 4 groups of mice during the training phase of the fear conditioning (F3,41=0.04188, p=0.9884, n=8-14/group; FIG. 24C). Twenty-four hours later, freezing behavior was decreased in Aβ-infused mice compared to vehicle-infused mice in the analysis of the contextual learning (F3,41=3.619, p=0.0209, n=8-14/group; FIG. 24C). Freezing in Aβ-infused mice was about 25% that of vehicle-infused mice [Aβ-infused mice: 8.580±2.119% vs. vehicle-infused mice: 31.46±5.373% n=12 and 11 males, respectively; t=3.147, p=0.0049; FIG. 24C].

SMILES | LTP deficit (Aβ42-treated slices) | IC50 (HDAC11) | % Activity (HDAC11; OA2 Log[nM] 0.5) | % Activity (HDAC11; OA2 Log[nM] 4.5) | % Activity (HDAC11; OA2 Log[nM] 5.3) | dose up to which no adverse effects were induced [1] | RAWM performance, compound by itself (Aβ42-infused mice; 5 mg/kg i.p., no Aβ) | Aβ-induced reference memory impairment (RAWM errors) (Aβ42-infused mice; Aβ42-infused mice, i.p. 5 mg/kg 30 min prior to 1st and 7th trial, 5 mg/kg) | effect on p300 activity (p300) | freezing time relative to Aβ-infused mice (Aβ-infused mice; Aβ-infused mice injected with TSA) | deficit in freezing responses in Aβ-infused mice (Aβ-infused mice; TSA i.p. 2 hrs before training) | freezing, contextual fear conditioning 24 hrs after training (Aβ-infused mice; TSA+Aβ treated mice, TSA 2 mg/kg i.p. 2 hrs prior to training, Aβ42 200 nM) | freezing, contextual fear conditioning 24 hrs after training (Aβ-infused mice; TSA-treated, vehicle-infused mice) | cued fear conditioning, freezing among the 4 groups (Aβ-infused mice; pre-CS and CS)
CCOc1cccc(OCCN(C)C)c1C(=O)Nc1ccc(Cl)c(C(F)(F)F)c1 [YF2] | ameliorated; also recorded: rescues | > 200 µM | 86.81% | 108.09% | 132.07% and 115.35% | up to 300 mg/kg | did not affect | ameliorated; also recorded: rescued | did not interfere; also recorded: increases p300 activity |  |  |  |  | 
CC(/C=C/C(=O)NO)=C\[C@@H](C)C(=O)c1ccc(N(C)C)cc1 [TSA, trichostatin A] |  |  |  |  |  |  |  |  |  | about 300% | ameliorates | 26.17±4.747% | 27.01±7.246% | did not find a difference
